These results are taken from ChEMBL document CHEMBL1201862, “PubChem BioAssay data set” (2004).

What all share (test): inhibition of tumour cell growth, NCI panel, 48 h
In test [1] the test system is BT-549.
Test [2] concerns LXFL 529.
Test [3] relates to HOP-18.
Test [4] has as its system DMS-114.
Test [5] deals with M19-MEL.
Test [6] has as its system XF498.
Test [7] concerns MDA-N.
In test [8] the test system is SNB-78.

Where “and” joins values, the source holds several entries; their conditions need not be identical. Identical values can stand only once.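 Compound exposure: 48 hours, 5 concentrations, 96-well plates. GI50 is the concentration that inhibits growth by half.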 Calls of active or inactive are those of the source. No stated cut-off is given here; in the data, active = GI50 up to about 1.1 µM and inactive = higher. Square brackets hold non-standard residues; d marks the D form. Peptide text beside a SMILES is read from it. pGlu = O=C1CC[C@@H](C(=O)O)N1; Thz = O=C(O)[C@@H]1CSCN1 Bounds are passed on as bounds.

Take `CSc1nc(O)c(C#N)c(-c2ccc(Cl)cc2)n1`: the GI50 in test [1] is > 100 µM (inactive).
As to `Sc1ncnc2c1ncn2C1CCCO1` (stereo unspecified), the GI50 is > 100 µM (inactive) in test [2], > 100 µM (inactive) in test [3] and 65.8 µM (inactive) in test [4].
As for `CCN(CC)c1c(C(=O)/C=C/c2ccccc2)c(-c2ccccc2)nn(C)c1=O`, the GI50 in test [2] was 5.01 µM (inactive); in test [5], > 100 µM (inactive); in test [4], 5.32 µM (inactive); in test [6], 11.2 µM (inactive).
`C=C(Cl)C(Cl)(CBr)CCC(Br)C(C)(C)Cl` (stereo unspecified): the GI50 in test [7] was 2.28 µM (inactive) and 964 nM (active) and 8.77 µM (inactive); in test [1], 2.05 µM (inactive) and 1.04 µM (active) and 1.79 µM (inactive).
Turning to `CCC1OCCN1C(C)C` (stereo unspecified), the GI50 in test [2] was > 100 µM (inactive); in test [5], 71.4 µM (inactive); in test [4] it was 85.9 µM (inactive); in test [8] it was > 100 µM (inactive).
As to `O=C1/C(=C\c2ccc([N+](=O)[O-])o2)SC2NC(COc3ccc(Cl)cc3)=NN12` (stereo unspecified), the GI50 is 3.48 µM (inactive) in test [7] and 9.84 µM (inactive) in test [1].
Regarding `CC(C)C1(NC(=O)C2CC3c4cccc5[nH]cc(c45)CC3N(C)C2)OC2(O)C3CCCN3C(=O)C(Cc3ccccc3)N2C1=O` (stereo unspecified), the GI50 in test [7] is 22.3 µM (inactive); in test [1], 55 µM (inactive).
On the same counts, the results for `COC(=O)C1=C(OC(=O)/C(=C/c2ccccc2)c2ccc(Cl)cc2)C(C(=O)OC)[C@@]2(O)[C@@H](C(=O)OC)[C@H](C)C[C@@H]1[C@@H]2C(=O)OC` (stereo partly specified) are > 100 µM (inactive) and > 100 µM (inactive).
On the same counts, the results for `O=C(/C=C/c1cccs1)c1cccc(C(=O)/C=C/c2cccs2)n1` are 28.2 µM (inactive) and 42.8 µM (inactive).
On to `COc1cc(C(=O)OC2CC(C)=CC[C@@]3(C)CC[C@](O)(C(C)C)C23)ccc1O` (stereo partly specified), for which the GI50 in test [7] is 18.3 µM (inactive).
As for `COC(=O)c1ccc(C)cc1C1CN=NC12Cc1cccc(C)c1C2=O` (stereo unspecified), the values for the GI50 in test [7] and in test [1] were 26.2 µM (inactive) and 25.6 µM (inactive), respectively.
On the same counts, the results for `CCOc1cc(CCNC)c2c(ccc3ccc(OC)c(O)c32)c1OC` are 2.49 µM (inactive) and 16.3 µM (inactive).
On to `C[C@]12Cc3cn[nH]c3C(=O)C1CC[C@@H]1C2CC[C@@]2(C)C1CC[C@@H]2O` (stereo partly specified), for which the GI50 in test [2], in test [3], in test [4], in test [8] and in test [6] was > 100 µM (inactive) each time.
Take `COC(=O)/N=C(\NC(=O)OC)Nc1ccc(Oc2ccccc2)cc1NC=O`: the GI50 in test [2] was 0.667 µM (active); in test [5], 0.312 µM (active); in test [3] it was > 100 µM (inactive); in test [4], 0.253 µM (active); in test [6] it was 0.369 µM (active).
`COc1ccc(-c2c(C#N)c(N)nc(Sc3ccccc3N)c2C#N)cc1`: the GI50 was > 100 µM (inactive) in test [7] and 9.35 µM (inactive) in test [1].
`C=C1C2CCCC1C1(S(C)(=O)=O)CCCCC21O` (stereo unspecified): the GI50 in test [2], in test [5], in test [3], in test [4] and in test [8] was > 100 µM (inactive) throughout.
Take `O=C(O)Cc1ccc(-n2nnc3c(=O)[nH][nH]c(=O)c32)cc1`: the GI50 in test [7] and in test [1] was > 100 µM (inactive) in each case.
As for `O=C1/C(=C/C=C/c2ccccc2)CCC1CNc1ccc(Br)cc1` (stereo unspecified), in test [1], the GI50 was > 100 µM (inactive).
`N#Cc1cc2c(cc1C#N)SCCSCCCSCCS2`: the GI50 in test [7] was > 100 µM (inactive); in test [1] it was 15 µM (inactive).
For `Cc1c2c(c(C)n1-c1ccccc1)C(=O)N(CCSC(=N)N)C2=O`, the GI50 in test [7] and in test [1] was > 100 µM (inactive) each time.
On to `Cc1n[nH]c(C(F)(F)F)c1/N=N/N1CCOCC1`, for which the GI50 in test [1] is 12.4 µM (inactive).
With `CO[C@]1(c2ccc([N+](=O)[O-])cc2)Oc2ccccc2C(=O)[C@@]1(Nc1ccc(C=O)cc1)OC`, the GI50 in test [7] and in test [1] was > 10 µM (inactive) each time.
In the case of `c1ccc([P+](CCN2Cc3ccccc3C2)(c2ccccc2)c2ccccc2)cc1`, in test [7], the GI50 is 3.27 µM (inactive).
Regarding `O=C1C=C2C(=NC34CCCCC3C(c3ccccc3)C3=C(c5ccccc5CC3)N24)c2ccccc21` (stereo unspecified), the GI50 in test [7] and in test [1] was > 10 µM (inactive) in each case.
With `Nc1ncnc2c1ncn2[C@H]1C=C[C@@H](NO)C1`, the GI50 in test [7] and in test [1] was > 100 µM (inactive) each time.
On to `COc1cccc(N2N=C3c4ccccc4-n4c(nc5ccccc54)C3C2N)c1` (stereo unspecified), for which the GI50 in test [7] and in test [1] was > 100 µM (inactive) in each case.
Take `COc1ccc(C2Oc3c(cccc3-c3c(-c4ccc(O)cc4)oc4cc(O)cc(O)c4c3=O)C(=O)C2O)cc1O` (stereo unspecified): the GI50 in test [1] was > 100 µM (inactive).
As for `CCC(CS(=O)(=O)O)[N+](=O)[O-]` (stereo unspecified), the GI50 in test [7] and in test [1] was > 100 µM (inactive) throughout.
In the case of `O=c1c2cc([N+](=O)[O-])ccc2[nH]n1Cc1ccccc1Cl`, the GI50 in test [7] was > 100 µM (inactive).
In the case of `O=C(c1ccccc1)c1ccc(N2C(=O)/C(=C/c3cccc(Oc4ccccc4)c3)N=C2c2ccccc2)c(N2C(=O)/C(=C/c3cccc(Oc4ccccc4)c3)N=C2c2ccccc2)c1`, the GI50 in test [7] was 5.09 µM (inactive); in test [1], 24.7 µM (inactive).
For the compound `Cc1ccc(C(=O)NC2CCCCC2)cc1/N=N/N(C)C`, the GI50 in test [2], in test [5] and in test [8] was > 100 µM (inactive) throughout.
As to `CC(CCc1ccccc1)NCC(O)n1c(/N=N/N(C)C)nc2c1c(=O)n(C)c(=O)n2C` (stereo unspecified), the GI50 in test [7] and in test [1] was > 100 µM (inactive) each time.
Consider `Cc1c(/C=N/NC(=S)Nc2ccc([N+](=O)[O-])cc2)c(=O)n(-c2ccccc2)n1C`, for which the GI50 in test [1] was 15.7 µM (inactive).
`CCO/C(=N/S(=O)(=O)C(F)(F)F)N(C(C)C)C(C)C`: the GI50 in test [7] and in test [1] was > 100 µM (inactive) throughout.
In the case of `O=C(O)/C(Cl)=C(\Cl)C(=O)Nc1ccc(Cl)c(Cl)c1Cl`, the GI50 is 20.1 µM (inactive) in test [2]; 16.8 µM (inactive) in test [5]; 16.3 µM (inactive) in test [3]; 20.8 µM (inactive) in test [4]; 28.4 µM (inactive) in test [8].
For `CC1=C(C#N)C(=C(C#N)C#N)OC1(C)Cc1ccccc1` (stereo unspecified), the GI50 in test [1] was 35.1 µM (inactive).
For the compound `O=C(CCCl)NN=C1NCCN1`, the GI50 in test [7] and in test [1] was > 100 µM (inactive) throughout.
In the case of `CSc1nc(SC)c2c(C)cn(C3OC(C)C(O)C(O)C3O)c2n1` (stereo unspecified), the GI50 in test [7] is 67.6 µM (inactive); in test [1] it was 39.2 µM (inactive).
Take `COC(=O)C1=C(C(=O)OC)N(c2ccncc2)C(c2ccco2)=CC1c1ccccc1[N+](=O)[O-]` (stereo unspecified): the GI50 in test [7] was 2.71 µM (inactive); in test [1], 6.7 µM (inactive).
As to `COc1cc(Br)c(/C=N\c2cccc3ccc(OS(=O)(=O)c4cccc([N+](=O)[O-])c4)cc23)cc1OC`, the GI50 in test [2] is 14.3 µM (inactive); in test [5], 36.1 µM (inactive); in test [3], > 100 µM (inactive); in test [4], 14.7 µM (inactive); in test [8] it was 12 µM (inactive).
For the compound `CCCCCC[C@H]([C@H](C)O)n1cnc2c(N)ncnc21`, the GI50 in test [7] was > 100 µM (inactive).
For the compound `CCn1c(-c2ccccc2)nc2c1C(=O)c1ccccc1C2=O`, the GI50 in test [7] is 18.8 µM (inactive); in test [1] it was 24.9 µM (inactive).
Take `CC(=O)NNc1nc(C)c(C(/C=C/c2ccc([N+](=O)[O-])cc2)=N/N)s1`: the GI50 in test [7] and in test [1] was > 100 µM (inactive) throughout.
As for `N#Cc1nc(-c2cc([N+](=O)[O-])cc([N+](=O)[O-])c2)oc1N`, the GI50 in test [7] and in test [1] was > 10 µM (inactive) each time.
As to `CCOP(=O)(OCC)/C(C#N)=C/c1ncc[nH]1`, the GI50 in test [7] and in test [1] was > 100 µM (inactive) in each case.
`COc1ccc2c(c1)/C(=C\c1c(Cl)nc3sc(C)cn13)C(=O)N2`: the GI50 in test [7] is 0.418 µM (active); in test [1], 5.21 µM (inactive).
Regarding `O=c1[nH]ccc(CNC23CC4CC(CC(C4)C2)C3)c1O`, the GI50 in test [2], in test [5], in test [3], in test [8] and in test [6] was > 100 µM (inactive) each time.
On to `CC1(C)CCC[C@@]2(C)C1CC[C@@]1(CO)O[C@H](C3=CC(=O)OC3O)C[C@H]12` (stereo partly specified), for which the GI50 in test [7] was 12.6 µM (inactive); in test [1], 8.26 µM (inactive).
With `C[C@]12OC(=O)[C@]3(O)CC[C@H]4[C@@H](C[C@@H](O)[C@@]5(Cl)CC=CC(=O)[C@]45C)[C@]45OCC6C(=O)O[C@@H]1C[C@@]6(C)[C@H](C4=O)[C@@]32O5` (stereo partly specified), the GI50 in test [7] was 1.16 µM (inactive); in test [1], 0.586 µM (active).
With `COc1cc(Br)c(CC2C3=C(CCN2C(=O)C2CCC2)CC2(CC3)OCCO2)cc1O` (stereo unspecified), in test [7], the GI50 was 34.4 µM (inactive).
As to `Nc1nc(O)c2nc(CNc3ccc(C(=O)NC(CCC(=O)O)C(=O)O)cc3)cnc2n1` (stereo unspecified), in test [1], the GI50 was > 100 µM (inactive).
For the compound `CCc1nc(N)nc(N)c1-c1ccc(Cl)c(N=[N+]=[N-])c1`, the GI50 in test [2] is 6.24 µM (inactive); in test [5], 11.9 µM (inactive); in test [3], 0.916 µM (active); in test [8], 18.2 µM (inactive); in test [6], 31 µM (inactive).
As to `CCN(CC)CCNc1ccc2nnn3c4ccc(O)cc4c(=O)c1c23`, the GI50 is 6.58 µM (inactive) in test [2]; 4.09 µM (inactive) in test [7]; 20.5 µM (inactive) in test [3]; 7.29 µM (inactive) in test [4]; 12.7 µM (inactive) in test [1]; 5.89 µM (inactive) in test [8].
Take `COc1ccc(-c2oc3cc(OC)c(OC)c(O)c3c(=O)c2OC)cc1`: the GI50 in test [7] was > 100 µM (inactive); in test [1] it was 18 µM (inactive).
For `NCCCNCCCCN1CC1`, in that order: 3.63 µM (inactive) and 5.4 µM (inactive).
On the same counts, the results for `O=C1CC[C@@H](C(=O)N2CSC[C@H]2C(=O)O)N1` [PIDOTIMOD] ([pGlu]-[Thz]-OH) are > 100 µM (inactive) and > 100 µM (inactive).
